Experimental data taken from patent US20230192677A1, “CYP11A1 INHIBITORS” (ORION CORPORATION, priority 2020, published 2023).

Molecular target: T1, CYP11A1 (Homo sapiens, UniProt P05108)
T1 construct: human H295R adrenocortical carcinoma cell line was used as source of enzyme; endogenous in cells; host or cells: H295R human adrenocortical carcinoma cells
T1 sequence (P05108 40-521): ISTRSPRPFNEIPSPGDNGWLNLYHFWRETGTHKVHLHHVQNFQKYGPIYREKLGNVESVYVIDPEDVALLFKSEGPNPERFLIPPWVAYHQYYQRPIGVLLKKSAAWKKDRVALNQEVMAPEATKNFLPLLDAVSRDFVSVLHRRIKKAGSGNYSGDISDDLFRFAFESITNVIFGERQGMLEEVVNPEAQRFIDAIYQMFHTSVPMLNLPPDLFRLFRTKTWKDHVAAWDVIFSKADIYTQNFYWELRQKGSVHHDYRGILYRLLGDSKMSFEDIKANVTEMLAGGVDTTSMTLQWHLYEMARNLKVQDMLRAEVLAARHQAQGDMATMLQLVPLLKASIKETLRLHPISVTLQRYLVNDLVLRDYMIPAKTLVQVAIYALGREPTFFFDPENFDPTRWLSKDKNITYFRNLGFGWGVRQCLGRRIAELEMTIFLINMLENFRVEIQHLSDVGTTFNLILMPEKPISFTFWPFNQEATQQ
Assay: CYP11A1 inhibition, isocaproic acid release assay (IARA) in H295R cells
Type: cell-based
Conditions: human H295R adrenocortical carcinoma cell line, three days, 3 nM [24,25-3H]-labelled cholesterol; read-out: IC50 on CYP11A1 inhibition (Group)
Description: The ability of the test compounds to inhibit conversion of cholesterol to pregnenolone and isocaproic acid was measured by modification of isocaproic acid release assay (IARA) described by Ruangwises et al. (Biology of Reproduction 1991; 45(1):143-50) except that human H295R adrenocortical carcinoma cell line was used as source of enzyme and extraction was done with dextran-coated charcoal suspension (Isomaa, V. et al., Endocrinology 1982; 111(3):833-843). […] To determine the half maximal inhibitory concentration (IC50) of the test compounds on CYP11A1 inhibition, the cells were treated for three days with increasing concentrations of the test compounds in the presence of 3 nM [24,25-3H]-labelled cholesterol (American Radiolabelled Chemicals). The final DMSO concentration was 1%. Cell culture medium was extracted with dextran-coated charcoal suspension and the radiolabelled isocaproic acid was determined by mixing 100 μl of supernatant fraction in 200 μl of scintillation fluid (OptiPhase SuperMix, Perkin Elmer). Radioactivity was measured using a Microbeta scintillation counter (1450 MicroBeta Trilux, Wallac). All the test compounds were studied at 10 concentrations in duplicates.

| IC50 | SMILES |
| --- | --- |
| < 100 nM | CS(=N)(=O)c1ccc(COc2ccc(CN3Cc4ccccc4C3)cc2S(C)(=O)=O)cc1 (centres unmarked) [Compound 72, Imino(4-((4-(isoindolin-2-ylmethyl)-2-(methylsulfonyl)phenoxy)methyl)phenyl)(methyl)-λ^6-sulfanone] |
| < 100 nM | CS(=O)(=O)N1CCC(COc2coc(CN3Cc4ccc(-c5ncco5)cc4C3)cc2=O)CC1 [Compound 3, 5-((1-(Methylsulfonyl)piperidin-4-yl)methoxy)-2-((5-(oxazol-2-yl)isoindolin-2-yl)methyl)-4H-pyran-4-one] |
| 101 to 200 nM | CC(C)(O)c1ccc(COc2coc(CN3Cc4ccccc4C4(CCCC4)C3)cc2=O)cc1 [Compound 104, 2-((1′H-Spiro[cyclopentane-1,4′-isoquinolin]-2′(3′H)-yl)methyl)-5-((4-(2-hydroxypropan-2-yl)benzyl)oxy)-4H-pyran-4-one] |
| 201 to 2000 nM | O=c1cc(CN2CCc3ccccc3C2)occ1OC1CC2(CCN(S(=O)(=O)c3cccnc3)CC2)C1 [Compound 54, 2-((3,4-Dihydroisoquinolin-2(1H)-yl)methyl)-5-((7-(pyridin-3-ylsulfonyl)-7-azaspiro[3.5]nonan-2-yl)oxy)-4H-pyran-4-one] |
| < 100 nM | CCS(=O)(=O)c1cc(CN2Cc3ccc(C(F)(F)F)cc3C2)ccc1OCC1CCN(S(C)(=O)=O)CC1 [Compound 27, 2-(3-(Ethylsulfonyl)-4-((1-(methylsulfonyl)piperidin-4-yl)methoxy)benzyl)-5-(trifluoromethyl)isoindoline] |
| < 100 nM | CS(=O)(=O)c1cc(CN2Cc3ccc(-c4cncs4)cc3C2)ccc1OCC1CCN(S(C)(=O)=O)CC1 [Compound 14, 5-(2-(3-(Methylsulfonyl)-4-((1-(methylsulfonyl)piperidin-4-yl)methoxy)benzyl)-isoindolin-5-yl)thiazole] |
| < 100 nM | CS(=O)(=O)c1cc(CN2Cc3cccc(F)c3C2)ccc1OCC1CCN(S(C)(=O)=O)CC1 [Compound 105, 4-Fluoro-2-(3-(methylsulfonyl)-4-((1-(methylsulfonyl)piperidin-4-yl)methoxy)-benzyl)isoindoline] |
| < 100 nM | CS(=O)(=O)c1ccc(COc2ccc(CN3Cc4ccccc4C3)cc2S(C)(=O)=O)cc1 [Compound 82, 2-(3-(Methylsulfonyl)-4-((4-(methylsulfonyl)benzyl)oxy)benzyl)isoindoline] |
| 201 to 2000 nM | CS(=O)(=O)N1CCC(COc2coc(C(N3Cc4ccccc4C3)C(F)(F)F)cc2=O)CC1 (centres unmarked) [Compound 20, 5-((1-(Methylsulfonyl)piperidin-4-yl)methoxy)-2-(2,2,2-trifluoro-1-(isoindolin-2-yl)ethyl)-4H-pyran-4-one] |
| 101 to 200 nM | CC(C)(C)OC(=O)N1CCC2(CC1)CC(Oc1coc(CN3CCc4ccccc4C3)cc1=O)C2 [Compound 32, tert-Butyl 2-((6-((3,4-dihydroisoquinolin-2(1H)-yl)methyl)-4-oxo-4H-pyran-3-yl)oxy)-7-azaspiro[3.5]nonane-7-carboxylate] |
| 201 to 2000 nM | CC(C)(C)OC(=O)N1CCC2(CC1)CC(COc1coc(CN3CCc4ccccc4C3)cc1=O)C2 [Compound 35, tert-Butyl 2-(((6-((3,4-dihydroisoquinolin-2(1H)-yl)methyl)-4-oxo-4H-pyran-3-yl)oxy)methyl)-7-azaspiro[3.5]nonane-7-carboxylate] |
| < 100 nM | CC(O)c1ccc(COc2ccc(CN3Cc4ccccc4C3)cc2S(C)(=O)=O)cc1 (centres unmarked) [Compound 92b, 1-(4-((4-(Isoindolin-2-ylmethyl)-2-(methylsulfonyl)phenoxy)methyl)phenyl)-ethanol] |
| 201 to 2000 nM | CC(O)C1CCC(COc2ccc(CN3Cc4ccccc4C3)cc2S(C)(=O)=O)CC1 (centres unmarked) [Compound 94, 1-(4-((4-(Isoindolin-2-ylmethyl)-2-(methylsulfonyl)phenoxy)methyl)cyclohexyl)ethan-1-ol] |
| 201 to 2000 nM | N#Cc1ccc(N2CC3(CC(COc4coc(CN5CCc6ccccc6C5)cc4=O)C3)C2)nc1 [Compound 51, 6-(6-(((6-((3,4-Dihydroisoquinolin-2(1H)-yl)methyl)-4-oxo-4H-pyran-3-yl)oxy)-methyl)-2-azaspiro[3.3]heptan-2-yl)nicotinonitrile] |
| < 100 nM | CC[S@](=N)(=O)c1ccc(COc2ccc(CN3Cc4ccccc4C3)cc2S(C)(=O)=O)cc1 [Compound 97, (S)-Ethyl(imino)(4-((4-(isoindolin-2-ylmethyl)-2-(methylsulfonyl)phenoxy)-methyl)phenyl)-λ^6-sulfanone] |
| 201 to 2000 nM | CS(=O)(=O)N1CC2(CC(COc3coc(CN4CCc5ccccc5C4)cc3=O)C2)C1 [Compound 62, 2-((3,4-Dihydroisoquinolin-2(1H)-yl)methyl)-5-((2-(methylsulfonyl)-2-azaspiro[3.3]heptan-6-yl)methoxy)-4H-pyran-4-one] |
| < 100 nM | CS(=O)(=O)c1cc(CN2Cc3ccc(-c4ncco4)cc3C2)ccc1OCC1CCN(S(C)(=O)=O)CC1 [Compound 13b, 2-(2-(3-(Methylsulfonyl)-4-((1-(methylsulfonyl)piperidin-4-yl)methoxy)-benzyl)isoindolin-5-yl)oxazole] |
| < 100 nM | CC(C)(O)c1ccc(COc2ccc(CN3Cc4ccccc4C3)cc2S(C)(=O)=O)cc1 [Compound 86, 2-(4-((4-(Isoindolin-2-ylmethyl)-2-(methylsulfonyl)phenoxy)methyl)phenyl)-propan-2-ol] |
| < 100 nM | CS(=O)(=O)N1CCC(COc2coc(CN3Cc4ccc(-c5ccon5)cc4C3)cc2=O)CC1 [Compound 5, 2-((5-(Isoxazol-3-yl)isoindolin-2-yl)methyl)-5-((1-(methylsulfonyl)piperidin-4-yl)methoxy)-4H-pyran-4-one] |
| 101 to 200 nM | O=c1cc(CN2CCc3ccccc3C2)occ1OCC1CC2(CCN(c3ncccn3)CC2)C1 [Compound 48, 2-((3,4-Dihydroisoquinolin-2(1H)-yl)methyl)-5-((7-(pyrimidin-2-yl)-7-azaspiro-[3.5]nonan-2-yl)methoxy)-4H-pyran-4-one] |
| 101 to 200 nM | CS(=O)(=O)c1cc(C(N2Cc3ccccc3C2)C(F)(F)F)ccc1OCC1CCN(S(C)(=O)=O)CC1 (centres unmarked) [Compound 21, 2-(2,2,2-Trifluoro-1-(3-(methylsulfonyl)-4-((1-(methylsulfonyl)piperidin-4-yl)methoxy)phenyl)ethyl)isoindoline] |
| 101 to 200 nM | CS(=O)(=O)c1cc(CN2Cc3ccc(-c4cnco4)cc3C2)ccc1OCC1CCN(S(C)(=O)=O)CC1 [Compound 13a, 5-(2-(3-(Methylsulfonyl)-4-((1-(methylsulfonyl)piperidin-4-yl)methoxy)-benzyl)isoindolin-5-yl)oxazole] |
| < 100 nM | CS(=O)(=O)c1cc(CN2Cc3ccccc3C2)ccc1OCC1CCN(S(C)(=O)=O)CC1 [Compound 65, 2-(3-(Methylsulfonyl)-4-((1-(methylsulfonyl)piperidin-4-yl)methoxy)benzyl)-isoindoline] |
| < 100 nM | CC(=O)[C@H]1CC[C@H](COc2ccc(CN3Cc4ccccc4C3)cc2S(C)(=O)=O)CC1 [Compound 67, 1-((1r,4r)-4-((4-(Isoindolin-2-ylmethyl)-2-(methylsulfonyl)phenoxy)methyl)-cyclohexyl)ethan-1-one] |
| 101 to 200 nM | O=c1cc(CN2CCc3ccccc3C2)occ1OCC1CC2(C1)CN(S(=O)(=O)c1ccc(F)cc1)C2 [Compound 58, 2-((3,4-Dihydroisoquinolin-2(1H)-yl)methyl)-5-((2-((4-fluorophenyl)sulfonyl)-2-azaspiro[3.3]heptan-6-yl)methoxy)-4H-pyran-4-one] |
| < 100 nM | CS(=N)c1ccc(COc2ccc(CN3Cc4ccccc4C3)cc2S(C)(=O)=O)cc1 (centres unmarked) [Compound 84, (4-((4-(Isoindolin-2-ylmethyl)-2-(methylsulfonyl)phenoxy)methyl)phenyl)-(methyl)-λ^4-sulfanimine] |
| < 100 nM | CCCCS(=O)(=O)c1cc(CN2Cc3ccccc3C2)ccc1OCC1CCN(S(C)(=O)=O)CC1 [Compound 28, 2-(3-(Butylsulfonyl)-4-((1-(methylsulfonyl)piperidin-4-yl)methoxy)benzyl)iso-indoline] |
| 101 to 200 nM | CS(=O)(=O)N1CCC(COc2coc(CN3Cc4ccc(-c5nncs5)cc4C3)cc2=O)CC1 [Compound 6, 2-((5-(1,3,4-Thiadiazol-2-yl)isoindolin-2-yl)methyl)-5-((1-(methylsulfonyl)-piperidin-4-yl)methoxy)-4H-pyran-4-one] |
| < 100 nM | COCCN(C)C(=O)c1ccc(COc2ccc(CN3Cc4ccccc4C3)cc2S(C)(=O)=O)cc1 [Compound 69, 4-((4-(Isoindolin-2-ylmethyl)-2-(methylsulfonyl)phenoxy)methyl)-N-(2-methoxyethyl)-N-methylbenzamide] |
